Where no end group is shown, it is not given here.
Test system: Salmonella enterica serotype Enteritidis
Assay: Spot-on-lawn antimicrobial activity assay
Format: cell-based
Details: spot-on-lawn on M63 soft agar, 37 °C overnight; dried maturation assay in MeOH (41.7 µM if full conversion, 5 µL; Tyr9 derivatives also 69.5 µM, 8 µL); halo diameters
Experimental: We next evaluated all lasso peptides and their corresponding branched-cyclic peptides for antimicrobial activity in spot-on-lawn assays against Salmonella enterica serotype Enteritidis.[42] […] Moreover, steric constraints in the tight binding pocket are a limiting factor for Tyr-9 substitutions.
4.3 Antimicrobial activity assay against Salmonella strain
The antimicrobial activity assay of MccJ25-derivatives was performed against the indicative strain Salmonella enterica serotype Enteritidis.
4.3.1 Preparation of M63 agar
For M63 agar plates (20 g agar/L): KH2PO4 (3 g/L), K2HPO4 (7 g/L), (NH4)2SO4 (2 g/L), Casamino acids (1 g/L) were dissolved in 900 mL water. Agar (20 g/L) was added, and the suspension was filled up to 1 L and autoclaved (121 °C for 20 min). […]
The indicative strain is freshly streaked on a LB agar plate and incubated at 37 °C overnight. […] The plates were inspected for bacterial growth and possible halos were measured. […]
Fig. S77: Antimicrobial activity test using spot-on-lawn assays with dried m aturation assay dissolved in 30 µL MeOH: (A) Peptides analyzed after maturation assay. (B) Photos of spot -on-lawn assays and measured halo diameters to evaluate trends in activity. The peptide with three D-amino acids was analyzed on a different date, ther efore, diameter of control C (MccJ25) . […]

Row | Substance | antimicrobial activity of enzymatically matured lasso peptides (in words)
1 | microcin J25 (GGAGHVPEYFVGIGTPISFYG; lactam (positions not given here); also: lasso peptide: isopeptide ring closure, ring positions not given here; UniProt Q9X2V7 38-58, looked up) [1′, native lasso peptide (21 AA), matured from WT-McjA, reference compound] | activities were only observed
2 | 9′: His-12 MccJ25 mutant (His-12, Phe-13, Ile-15), L-His (GGAGHVPEYFVHFGIPISFYG; ends and bridges not checked; also: lasso peptide: isopeptide ring closure, ring positions not given here; UniProt Q9X2V7 38-58, looked up, variant G12H I13F T15I) | slightly stronger activity

Reference: paper PMC11212047, “Merging Flow Synthesis and Enzymatic Maturation to Expand the Chemical Space of Lasso Peptides” (Journal of the American Chemical Society, 2024)
